Assay results as given in patent US11884686B2, “Chelate compounds” (priority 2016, dated 2024).
“Also recorded” adds a separate entry of the source.

Experiments:
[1] = Dissociation kinetics via Cu2+ transmetallation (UV-Vis absorbance); type: physicochemical; conditions: for overall kinetic inertness: Cu2+ and Zn2+ transmetallation, all experimental conditions; for nature of the kinetic dissociation curve, Cu2+ exchange: UV-Vis absorbance at 300 nm, all pH and Cu2+ concentrations assessed; for kobs1 / kobs2: 25° C., 0.2 mM chelate; for conversion of Mn chelate during transmetallation: competing Cu2+, FIGS. 9 and 10
Method: (§1) Kinetic inertness was evaluated at slightly acidic pH due to the slow rate of dissociation of the paramagnetic complex at physiological pH and to the potential hydrolysis of the metal ions at the concentrations used for the experiments and at pH values close to physiological.
The dissociation kinetics of the prior art Mn Chelate, Mn Chelate 4 and Mn Chelate 3 at a concentration of 0.2 mM was assessed via Cu^2+ transmetallation recording the time-dependent change of the UV-Vis absorbance in the presence of an excess of competing metal ion (10 and 40 equivalents of Cu^2+); at 25° C. and different pH (pH: 5.0; 5.2; 5.4). For all assessments, the reaction mixture contained 0.15 M NaCl; 50 mM NMP. The ? for the acquisition of the UV-Vis spectra was selected based on the difference between the observed absorbance for the Mn(II) based chelates (e.g., prior art Mn Chelate, Mn Chelate 3 and Mn Chelate 4) and the newly formed Cu^2+-complex in order to have the best differentiation between the two chemical species. The UV-Vis spectra were acquired at ? =300 nm on a Perkin-Elmer Lambda 19 spectrophotometer. Indeed, the displacement of Mn(II) ion induced by Cu^2+ led to an increase of the observed absorbance at ? =300 nm for all Mn(II) based chelates in all experimental conditions. This increase is due the formation of the Cu^2+-complex.
(§2) For any of the transmetallation experiments carried out with the prior art Mn Chelate (e.g., at different pH; different Zn^2+ or Cu^2+ concentration) it was evident that the variation of the relaxation rate T1 (for the Zn^2+-exchange; FIG. 4) or the variation of the UV-Vis absorbance (for the Cu^2+-exchange; FIG. 5) caused by competing metal ion was a “single phase” process better described as a mono-exponential function. […] The rate of dissociation described by kobs was calculated via equation (1) where [MnL]tot is the total concentration of Mn(II) based chelates and t is the observation time.
These biphasic kinetic curves could be mathematically well fitted with the biexponential equation (2) where A is the observed absorbance; b, A1 and A2 are constants specific for the biphasic dissociation process for a Mn(II) based chelate; kobs1 and kobs2 are the rate constants describing the biphasic dissociation and t is the observation time. A=b−A1e^−k^obs1^t−A2e^−k^obs2t (Equation 2)
The rates of the biphasic dissociation for Mn Chelate 3 and Mn Chelate 4 described by kobs1 and kobs2 and of the monophasic dissociation for the prior art Mn Chelate described by kobs were calculated via equation (2) and (1) respectively for the different experimental conditions utilized in the set of experiments.
From the qualitative comparison of the kinetic curves and preliminary kobs it was evident that Mn Chelate 3 and Mn Chelate 4 dissociate with a different mechanism described by a biexponential function and at a slower rate compared to the prior art Mn Chelate. To quantitatively compare the kinetic inertness of these Mn(II) based chelates, the direct comparison of the evolution of the UV-Vis absorbance at 300 nm was recorded for the Cu^2+ exchange reaction. Direct comparison of the UV-Vis absorbance allowed quantification of the conversion of the Mn(II) based chelates into Cu^2+ based chelates during the transmetallation reaction which can be correlated to the kinetic inertness of the Mn(II) complex. The “conversion” was calculated following equation (3), where At is the absorbance at a time t (or end of the reaction), A0 is the absorbance at time zero (or beginning of the acquisition) and Aeq is the absorbance at the equilibrium.

[2] = Dissociation kinetics via Zn2+ transmetallation (T1 relaxation time); type: physicochemical; conditions: for nature of the kinetic dissociation curve, Zn2+ exchange: time dependent T1, 25° C., pH 5.1-5.7
Method: as §1
The dissociation kinetics of Mn(II) based chelates (concentration 1 mM) of the invention was assessed via Zn^2+ transmetallation recording the time-dependent variation of the longitudinal relaxation time (i.e., T1). The assessment was completed in a set of experiments including for the prior art Mn Chelate different concentrations of competing metal ion (5, 10, 20, 40 equivalents of Zn^2+); at 25° C. and different pH (pH: 5.1; 5.4; 5.7). The dissociation kinetics for Mn Chelate 4 (concentration 1 mM) was assessed in the presence of 5 eq of Zn^2+ at 25° C. and pH 5.1 and 5.7. For both assessments, the reaction mixture contained 0.15 M NaCl and 50 mM N-methyl piperazin buffer (i.e., NMP). The longitudinal relaxation time changes were monitored at 1 MHz for the prior art Mn Chelate and at 0.01 MHz for Mn Chelate 4. Indeed, the release of the free Mn^2+ ion induced by Zn^2+ leads to a decrease of the relaxation time for both Mn(II) based chelates evaluated in all experimental conditions. […]
as §2

| SMILES | overall kinetic inertness [1] | nature of the kinetic dissociation curve, Cu2+ exchange [1] | kobs1 ([1]; pH = 5.0, CCu2+ 0.002 M) | kobs2 ([1]; pH = 5.0, CCu2+ 0.002 M) | kobs1 ([1]; pH = 5.0, CCu2+ 0.008 M) | kobs2 ([1]; pH = 5.0, CCu2+ 0.008 M) | kobs1 ([1]; pH = 5.2, CCu2+ 0.002 M) | kobs2 ([1]; pH = 5.2, CCu2+ 0.002 M) | conversion of Mn chelate during transmetallation [1] | kobs1 ([1]; pH = 5.4, CCu2+ 0.002 M) | kobs2 ([1]; pH = 5.4, CCu2+ 0.002 M) | kinetic inertness from conversion, Zn2+ transmetallation ([2]; FIG. 11, versus prior art Mn Chelate) | nature of the kinetic dissociation curve, Zn2+ exchange [2] |
| --- | --- | --- | --- | --- | --- | --- | --- | --- | --- | --- | --- | --- | --- |
| CN(C[C@H](O)[C@@H](O)[C@H](O)[C@H](O)CO)C(=O)CCCN1CCN2Cc3cccc(n3)CN(CC1)C(CCC(=O)N(C)C[C@H](O)[C@@H](O)[C@H](O)[C@H](O)CO)C(=O)[O][Mn][O]C(=O)C2CCC(=O)N(C)C[C@H](O)[C@@H](O)[C@H](O)[C@H](O)CO (stereo partly shown) [Mn Chelate 3] | evident improvement in overall kinetic inertness | biphasic nature | 0.483 min⁻¹ | 0.0023 min⁻¹ | 0.378 min⁻¹ | 0.0024 min⁻¹ | 0.303 min⁻¹ | 0.0015 min⁻¹ |  |  |  |  |  |
| CN1CCN2Cc3cccc(n3)CN(CC1)C(CCC(=O)N(C)C[C@H](O)[C@@H](O)[C@H](O)[C@H](O)CO)C(=O)[O][Mn][O]C(=O)C2CCC(=O)N(C)C[C@H](O)[C@@H](O)[C@H](O)[C@H](O)CO (stereo partly shown) [Mn Chelate 4] | evident improvement in overall kinetic inertness; also recorded: most kinetically inert compound examined | biphasic nature | 0.340 min⁻¹ | 0.0013 min⁻¹ | 0.190 min⁻¹ | 0.0009 min⁻¹ | 0.240 min⁻¹ | 0.0009 min⁻¹ | dissociates even slower | 0.201 min⁻¹ | 0.001 min⁻¹ | superior kinetic inertness | biphasic behaviour |
| CN1CCN2CC(=O)[O][Mn][O]C(=O)CN(CC1)Cc1cccc(n1)C2 [Prior Art Mn Chelate, reference compound] |  | single phase | 0.034 min⁻¹ |  | 0.035 min⁻¹ |  | 0.022 min⁻¹ |  | reaches a full conversion at much shorter time point than Mn Chelate 3 | 0.017 min⁻¹ |  |  | single phase |
